Measurements reported in ChEMBL document CHEMBL1201862, “PubChem BioAssay data set” (2004).
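All cell lines were grown in 96-well plates and treated with compound for 48 hours. Here, GI50 denotes the concentration required for 50% inhibition of growth.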 Activity calls are given as the source filed them. Cut-off read from the data, not from the text of the source: active = GI50 up to about 1.1 µM and inactive = higher.

Tests used:
Test in all cases: growth of human tumour cells (NCI), 48 h
[1] = tested on: DMS-114
[2] = tested on: DMS-273
[3] = tested on: HOP-18
[4] = tested on: LXFL 529
[5] = tested on: RXF 631
[6] = tested on: BT-549
[7] = tested on: MCF7
[8] = tested on: MDA-N
[9] = tested on: T47D

SMILES | GI50 [1] | GI50 [2] | GI50 [3] | GI50 [4] | GI50 [5] | GI50 [6] | GI50 [7] | GI50 [8] | GI50 [9]
O=C(c1ccccc1)c1cccc(C(=O)c2ccccc2)c1 | 43.4 µM (inactive) | > 100 µM (inactive) | > 100 µM (inactive) | 74.1 µM (inactive) | – | – | – | – | –
N#C/C(=C\c1cccc(O)c1)C(N)=O | > 100 µM (inactive) | > 100 µM (inactive) | – | > 100 µM (inactive) | > 100 µM (inactive) | – | – | – | –
Oc1cc(-c2ccccn2)nc2cc(F)ccc12 | – | – | 40.4 µM (inactive) | > 100 µM (inactive) | > 100 µM (inactive) | – | – | – | –
CC(=O)OC1COC(N2CCc3ccccc32)C(OC(C)=O)C1OC(C)=O (stereo not given) | > 91.6 µM (inactive) | > 100 µM (inactive) | > 100 µM (inactive) | > 100 µM (inactive) | > 100 µM (inactive) | – | – | – | –
CCN1c2ccccc2-c2c3c1cc(C)cc3c1ccccc1[n+]2CC | 0.461 µM (active) | 0.385 µM (active) | – | 0.384 µM (active) | 5.24 µM (inactive) | – | – | – | –
OC1(C(O)(c2ccc(-c3ccccc3)cc2)c2ccc(-c3ccccc3)cc2)CCCCC1 | – | – | – | – | – | > 100 µM (inactive) | 96.8 µM (inactive) | > 100 µM (inactive) | > 100 µM (inactive)
Nc1nc(N)nc(CC(=O)O)n1 | – | – | – | – | – | > 100 µM (inactive) | > 100 µM (inactive) | > 100 µM (inactive) | > 100 µM (inactive)
CN(C)c1ccc(/C=C2\Oc3ccccc3C2=O)cc1 | – | – | – | – | – | > 100 µM (inactive) | 54.1 µM (inactive) | 34.8 µM (inactive) | > 100 µM (inactive)
CCCCCCCCCCCCCCCCCCNc1ccn(C2OC(COP(=O)(O)OCC3OC(n4ccc(N)nc4=O)C(O)C3O)C(O)C2O)c(=O)n1 (stereo not given) | – | – | – | – | – | > 49.5 µM (inactive) | 45.2 µM (inactive) | > 100 µM (inactive) | > 78.3 µM (inactive)
Oc1ccc(/C=N/c2ccccc2O)cc1 | – | – | – | – | – | 67.8 µM (inactive) | 27.4 µM (inactive) | 18.3 µM (inactive) | 73.5 µM (inactive)
C=CC(C)CCC(C/C=C(\C)CCCC(C)C)C(=C)CCCC(C)C (stereo not given) | – | – | – | – | – | > 100 µM (inactive) | > 100 µM (inactive) | > 100 µM (inactive) | > 100 µM (inactive)
CC(=O)NNc1nc(C)c(C(/C=C/c2ccc(Cl)cc2)=N\NS(=O)(=O)c2ccc(C)cc2)s1 | – | > 100 µM (inactive) | > 100 µM (inactive) | > 100 µM (inactive) | > 100 µM (inactive) | – | – | – | –
C/C(=N/NC(=S)Nc1ccc([N+](=O)[O-])cc1)c1cccc(/C(C)=N\NC(=S)Nc2ccc([N+](=O)[O-])cc2)n1 | – | – | – | – | – | 0.463 µM (active) | 0.341 µM (active) | 2.35 µM (inactive) | 2.16 µM (inactive)
O=C1C(Cl)C(c2ccccc2Cl)N1n1cnc2ccccc2c1=O (stereo not given) | 16.4 µM (inactive) | 26 µM (inactive) | – | 49.1 µM (inactive) | – | – | – | – | –
CC(=O)O[C@H]1CCC2[C@@H]3CCC4=C(O)C(=O)C(C#N)C[C@]4(C)C3CC[C@@]21C (stereo not given in full) | 25.6 µM (inactive) | 19.4 µM (inactive) | – | 35 µM (inactive) | – | – | – | – | –
CCOC(=O)C1(C#N)C(c2ccccc2)CC(O)(c2ccc(Cl)cc2)C(C(=O)c2ccc(Cl)cc2)C1c1ccccc1 (stereo not given) | > 100 µM (inactive) | 67.1 µM (inactive) | > 100 µM (inactive) | 69.5 µM (inactive) | – | – | – | – | –
Clc1cc2ns[s+]c2cc1Cl | 29.1 µM (inactive) | 32.3 µM (inactive) | – | 4.72 µM (inactive) | 60.3 µM (inactive) | – | – | – | –
COC(=O)C(=O)Nc1cc2c3c(c1)Oc1cccc4c1C3(C)c1c(cccc1O2)O4 | – | – | – | – | – | > 100 µM (inactive) | > 100 µM (inactive) | > 100 µM (inactive) | > 61.7 µM (inactive)
COc1ccc(/C=C/C(=N/NC(=O)N/N=C(/C=C/c2ccc(OC)cc2)C(C)(C)CN2CCCCC2)C(C)(C)CN2CCCCC2)cc1 | – | – | – | – | – | 1.98 µM (inactive) | 2.35 µM (inactive) | 1.64 µM (inactive) | 1.99 µM (inactive)
CCOP(C)(=O)C(Cc1c[nH]c2ccccc12)C(=O)O (stereo not given) | – | – | – | – | – | > 100 µM (inactive) | > 100 µM (inactive) | > 100 µM (inactive) | > 100 µM (inactive)
CN(C)CC/C(=N\Nc1ccc(Cl)c(Cl)c1)c1ccccc1 | 1.83 µM (inactive) | 1.75 µM (inactive) | 1.52 µM (inactive) | 1.52 µM (inactive) | – | – | – | – | –
CC(C)(C)O/N=C/c1cc(NC(=S)c2ccsc2)ccc1Cl | – | – | – | – | – | 13.9 µM (inactive) | 11.2 µM (inactive) | 15.2 µM (inactive) | 4.01 µM (inactive)
CN1C(=S)CSc2ccccc21 | > 100 µM (inactive) | > 100 µM (inactive) | – | > 100 µM (inactive) | – | – | – | – | –
COc1ccc(N2C(=O)[C@@H]3[C@H](C2=O)c2[nH]c4ccccc4c2C2CCC(C(C)(C)C)C[C@@H]23)cc1 (stereo not given in full) | – | 41.8 µM (inactive) | – | 39.4 µM (inactive) | – | – | – | – | –
CC(CN1CCN(CC(C)Nc2ccnc3cc(Cl)ccc23)CC1)Nc1ccnc2cc(Cl)ccc12 (stereo not given) | 20.2 µM (inactive) | 16.3 µM (inactive) | – | 16.6 µM (inactive) | 12.4 µM (inactive) | – | – | – | –
